Reference: ChEMBL document CHEMBL4732166, “Thiosemicarbazide binds with the dicopper center in the competitive inhibition of mushroom tyrosinase enzyme: Synthesis and molecular modeling of theophylline analogues” (Bioorg Med Chem Lett, 2021)

Columns and labels:
[1] = target: Mushroom tyrosinase (Agaricus bisporus) (UniProt O42713+Q00024+C7FF04+C7FF05); settings: dose 50.0 µM
Description: Inhibition of mushroom tyrosinase using PNP-G as substrate at 50 nM relative to control

[2] = target: T1, Mushroom tyrosinase (Agaricus bisporus, UniProt O42713+Q00024+C7FF04+C7FF05); assay: Competitive inhibition of mushroom tyrosinase using […] as substrate by Lineweaver-Burk plot analysis
[3] = target: T1, Mushroom tyrosinase; assay: Inhibition of mushroom tyrosinase using […] as substrate

Structure (SMILES): CCn1c(Oc2ccc(C=C(C#N)C#N)cc2)nc2c1c(=O)n(C)c(=O)n2C
- inhibition [1]: > 40%

Structure (SMILES): CCn1c(Oc2ccc(/C=N\NC(=O)c3cccnc3)cc2)nc2c1c(=O)n(C)c(=O)n2C
- inhibition [1]: 40.3%

Structure (SMILES): CCn1c(Oc2ccc(-c3nc(-c4ccccc4)c(-c4ccccc4)[nH]3)cc2)nc2c1c(=O)n(C)c(=O)n2C
- inhibition [1]: > 40%

Structure (SMILES): CCn1c(N/N=C/c2nc3ccccc3[nH]2)nc2c1c(=O)n(C)c(=O)n2C
- inhibition [1]: 27%

Structure (SMILES): CCn1c(Oc2ccc(/C=N/N)cc2)nc2c1c(=O)n(C)c(=O)n2C
- inhibition [1]: > 40%

Structure (SMILES): CCn1c(Oc2ccc(/C=N/N=C3/C(=O)Nc4ccccc43)cc2)nc2c1c(=O)n(C)c(=O)n2C
- inhibition [1]: > 40%

Structure (SMILES): CCn1c(Oc2ccc(C=O)cc2)nc2c1c(=O)n(C)c(=O)n2C
- inhibition [1]: 29.5%

Structure (SMILES): CCn1c(Oc2ccc(/C=N/NC(N)=S)cc2)nc2c1c(=O)n(C)c(=O)n2C
- Ki [2]: 670 nM
- Ki [3]: 670 nM
- inhibition [1]: > 40%

Structure (SMILES): CCn1c(Oc2ccc(C=C3C(=O)NC(=S)NC3=O)cc2)nc2c1c(=O)n(C)c(=O)n2C
- inhibition [1]: 30.2%

Structure (SMILES): CCn1c(Oc2ccc(C3C4=C(CC(C)(C)CC4=O)NC4=C3C(=O)CC(C)(C)C4)cc2)nc2c1c(=O)n(C)c(=O)n2C
- inhibition [1]: > 40%

Structure (SMILES): CCn1c(Oc2ccc(/C=N/N=C3/NC(=O)CS3)cc2)nc2c1c(=O)n(C)c(=O)n2C
- inhibition [1]: 29.4%

Structure (SMILES): CCn1c(NN)nc2c1c(=O)n(C)c(=O)n2C
- inhibition [1]: > 40%

Structure (SMILES): CCn1c(Oc2ccc(/C=N/Nc3ccccn3)cc2)nc2c1c(=O)n(C)c(=O)n2C
- inhibition [1]: > 40%

Structure (SMILES): CCn1c(Oc2ccc(C3C(C#N)=C(N)Oc4[nH]c(=S)[nH]c(=O)c43)cc2)nc2c1c(=O)n(C)c(=O)n2C (stereo not drawn)
- inhibition [1]: 32.7%

Structure (SMILES): CCn1c(Oc2ccc(/C=N\Nc3c(F)c(F)c(F)c(F)c3F)cc2)nc2c1c(=O)n(C)c(=O)n2C
- inhibition [1]: > 40%

Structure (SMILES): CCn1c(Oc2ccc(-c3nnc(NC(C)=O)s3)cc2)nc2c1c(=O)n(C)c(=O)n2C
- inhibition [1]: 33.6%
